Measurements published in PubChem BioAssay AID1918957 (Molecular Pharmacology Branch, DTP, NCI, 2023).

System: NCI-H1876 complex spheroid viability
Test: Anticancer human tumor NCI-H1876 cell line growth inhibition [LSD1];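 further: spheroids exposed to compounds for one week before readout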;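 on viability, T/C: 100% = DMSO vehicle-treated spheroids so lower means fewer viable cells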
Conditions: for IC50: curve of first compound; for viability, T/C: stronger effect = lower value
In short: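 Complex spheroids of tumor cells with HUVEC and human MSCs, exposed to iadademstat combined with other agents. Each agent tested in half-log steps from near clinical Cmax (else 10 microM top), DMSO ≤0.25%.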

CC(C)CC(NC(=O)C(Cc1ccccc1)NC(=O)c1cnccn1)B(O)O (stereo not given) + NC1CCC(NC2CC2c2ccccc2)CC1
IC50 (second compound 0.1 µM): 602 pM
IC50 (second compound 0.316 µM): 563 pM
IC50 (second compound 1 µM): 555 pM
IC50 (second compound 3.16 µM): 449 pM
IC50 (second compound 10 µM): 485 pM
viability, T/C (second compound 0.1 µM, first compound 0.000316 µM): 92.6%
viability, T/C (second compound 0.1 µM, first compound 0.001 µM): 16.3%
viability, T/C (second compound 0.1 µM, first compound 0.00316 µM): 31.7%
viability, T/C (second compound 0.1 µM, first compound 0.01 µM): 14.5%
viability, T/C (second compound 0.1 µM, first compound 0.0316 µM): 0.17%
viability, T/C (second compound 0.1 µM, first compound 0.1 µM): 3.63%
viability, T/C (second compound 0.316 µM, first compound 0.000316 µM): 89.3%
viability, T/C (second compound 0.316 µM, first compound 0.001 µM): 9.55%
viability, T/C (second compound 0.316 µM, first compound 0.00316 µM): 13.6%
viability, T/C (second compound 0.316 µM, first compound 0.01 µM): 17.3%
viability, T/C (second compound 0.316 µM, first compound 0.0316 µM): 10.1%
viability, T/C (second compound 0.316 µM, first compound 0.1 µM): 3.61%
viability, T/C (second compound 1 µM, first compound 0.000316 µM): 82%
viability, T/C (second compound 1 µM, first compound 0.001 µM): 16.4%
viability, T/C (second compound 1 µM, first compound 0.00316 µM): 13.8%
viability, T/C (second compound 1 µM, first compound 0.01 µM): 13.1%
viability, T/C (second compound 1 µM, first compound 0.0316 µM): 7.48%
viability, T/C (second compound 1 µM, first compound 0.1 µM): 11.4%
viability, T/C (second compound 3.16 µM, first compound 0.000316 µM): 70%
viability, T/C (second compound 3.16 µM, first compound 0.001 µM): 0.39%
viability, T/C (second compound 3.16 µM, first compound 0.00316 µM): 9.3%
viability, T/C (second compound 3.16 µM, first compound 0.01 µM): 3.65%
viability, T/C (second compound 3.16 µM, first compound 0.0316 µM): 0.15%
viability, T/C (second compound 3.16 µM, first compound 0.1 µM): 10.3%
viability, T/C (second compound 10 µM, first compound 0.000316 µM): 74%
viability, T/C (second compound 10 µM, first compound 0.001 µM): 9.39%
viability, T/C (second compound 10 µM, first compound 0.00316 µM): 7.81%
viability, T/C (second compound 10 µM, first compound 0.01 µM): 7.31%
viability, T/C (second compound 10 µM, first compound 0.0316 µM): 3.77%
viability, T/C (second compound 10 µM, first compound 0.1 µM): 12.5%
